According to PMC9762331 (Cancer Discovery, 2021):
“Also recorded” adds a separate entry of the source.

Experiments:
[1] = system: primary human hepatocytes; test: Cytotoxicity in primary human hepatocytes; format: cell-based; conditions: tested up to 100 μmol/L
[2] = system: SW48 isogenic PIK3CA-mutant and parental WT cells; test: Potency comparison in SW48 isogenic mutant versus WT cells; format: cell-based, human; conditions: for potency differential in mutant versus WT isogenic SW48 cells: viability EC50, mutant versus WT
[3] = system: HCC1954, KPL-4, and HCI-003 PDX; test: Efficacy in PIK3CA-mutant xenograft and PDX models; format: in vivo, mouse; conditions: HCC1954, KPL-4, HCI-003 PDX; dosed orally and daily
[4] = system: PIK3CA E545K-mutant MCF7 cells; test: CyQuant growth rate inhibition; format: cell-based; conditions: all combination treatments (± E2, ± 0.15 μmol/L palbociclib)
[5] = target: membrane-associated p110a in p110a-mutant HCC1954 xenograft model (Homo sapiens, UniProt P42336, H1047R); test: Membrane-associated p110a in HCC1954 xenograft tumors; format: in vivo, mouse
Chain of membrane-associated p110a in p110a-mutant HCC1954 xenograft model (P42336 whole entry H1047R): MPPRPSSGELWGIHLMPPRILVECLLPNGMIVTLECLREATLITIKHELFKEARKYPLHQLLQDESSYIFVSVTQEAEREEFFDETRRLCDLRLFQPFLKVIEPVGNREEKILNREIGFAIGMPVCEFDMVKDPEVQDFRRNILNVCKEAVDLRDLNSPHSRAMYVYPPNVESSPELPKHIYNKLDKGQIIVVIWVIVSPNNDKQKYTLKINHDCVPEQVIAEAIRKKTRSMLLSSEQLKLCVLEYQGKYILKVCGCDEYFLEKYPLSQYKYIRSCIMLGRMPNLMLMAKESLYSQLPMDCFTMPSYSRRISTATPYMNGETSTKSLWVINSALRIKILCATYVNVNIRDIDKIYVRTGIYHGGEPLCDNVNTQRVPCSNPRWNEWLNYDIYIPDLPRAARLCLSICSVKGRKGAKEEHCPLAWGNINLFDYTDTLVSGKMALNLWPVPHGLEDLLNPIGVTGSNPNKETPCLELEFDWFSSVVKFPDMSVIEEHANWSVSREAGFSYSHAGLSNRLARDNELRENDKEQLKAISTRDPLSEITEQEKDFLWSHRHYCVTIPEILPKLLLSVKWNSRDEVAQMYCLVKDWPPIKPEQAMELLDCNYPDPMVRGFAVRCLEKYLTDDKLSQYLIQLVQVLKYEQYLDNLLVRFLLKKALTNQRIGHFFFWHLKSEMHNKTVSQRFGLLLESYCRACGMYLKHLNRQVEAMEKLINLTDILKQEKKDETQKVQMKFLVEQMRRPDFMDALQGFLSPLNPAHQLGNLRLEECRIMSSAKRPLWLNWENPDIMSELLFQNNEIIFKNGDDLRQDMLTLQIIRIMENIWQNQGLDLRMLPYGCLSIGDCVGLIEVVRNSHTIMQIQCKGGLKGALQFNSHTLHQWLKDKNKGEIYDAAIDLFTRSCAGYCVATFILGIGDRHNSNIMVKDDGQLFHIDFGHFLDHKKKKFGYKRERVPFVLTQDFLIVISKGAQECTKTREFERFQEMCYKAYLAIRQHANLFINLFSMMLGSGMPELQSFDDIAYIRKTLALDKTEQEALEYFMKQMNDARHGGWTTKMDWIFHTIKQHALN

[6] = system: HER2-positive PIK3CA-mutant breast tumor lines (n = 6); test: ATP cell viability, HER2-positive PIK3CA-mutant breast lines; format: cell-based; conditions: HER2 amplified PIK3CA-mutant cell lines, 5 days
[7] = system: HER2-negative PIK3CA-mutant breast tumor lines (n = 10); test: ATP cell viability, HER2-negative PIK3CA-mutant breast lines; format: cell-based; conditions: 5 days
[8] = system: pAKT in HER2-amplified PIK3CA-mutant cells (HCC1954, HCC202, MDA-MB-453); test: pAKT Western blot time course; format: cell-based; conditions: 0.5 μmol/L GDC-0077 or 1 μmol/L BYL719
[9] = system: p110a in PIK3CA-mutant breast cancer lines; conditions: treatment for 24 hours
[10] = target: H1047R mutant p110a in HCC1954 parental cells (Homo sapiens, UniProt P42336, H1047R); conditions: 24 hours, 500 nmol/L, P = 0.00016
Chain of H1047R mutant p110a in HCC1954 parental cells (P42336 whole entry H1047R): as above
Chain of H1047R mutant p110a in HCC1954 parental cells (O00459 whole entry partner): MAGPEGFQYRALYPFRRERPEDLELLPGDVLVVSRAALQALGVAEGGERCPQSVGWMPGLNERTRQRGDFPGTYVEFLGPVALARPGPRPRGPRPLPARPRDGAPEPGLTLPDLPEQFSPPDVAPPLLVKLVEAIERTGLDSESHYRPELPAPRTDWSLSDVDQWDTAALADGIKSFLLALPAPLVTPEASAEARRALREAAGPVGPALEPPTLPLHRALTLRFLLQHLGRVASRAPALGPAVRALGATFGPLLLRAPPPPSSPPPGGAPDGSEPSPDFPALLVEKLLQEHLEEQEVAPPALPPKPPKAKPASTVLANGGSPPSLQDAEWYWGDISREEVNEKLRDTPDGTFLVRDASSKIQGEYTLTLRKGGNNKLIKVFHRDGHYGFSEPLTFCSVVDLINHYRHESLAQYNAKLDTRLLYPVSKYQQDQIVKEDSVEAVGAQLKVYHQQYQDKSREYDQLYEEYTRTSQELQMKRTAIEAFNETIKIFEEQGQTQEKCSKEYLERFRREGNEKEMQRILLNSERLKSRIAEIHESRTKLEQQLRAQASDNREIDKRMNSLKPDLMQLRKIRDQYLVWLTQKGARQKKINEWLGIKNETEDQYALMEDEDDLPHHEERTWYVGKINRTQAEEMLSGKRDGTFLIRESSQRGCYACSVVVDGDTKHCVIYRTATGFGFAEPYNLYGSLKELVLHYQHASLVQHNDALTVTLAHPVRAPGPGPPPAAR

[11] = letrozole ± palbociclib portion of the study; cited from earlier work
[12] = target: p110a protein in PIK3CA H1047R-mutant HCC1954 cells (Homo sapiens, UniProt P42336, H1047R); test: p110a Western blot, HCC1954 cells; format: cell-based; conditions: treatment up to 8 hours
Chain of p110a protein in PIK3CA H1047R-mutant HCC1954 cells (P42336 whole entry H1047R): as the sequence (P42336 whole entry H1047R) above

[13] = target: p110a in PIK3CA-WT HDQ-P1 cells (Homo sapiens, UniProt P42336); conditions: Western blot, 8 hours
Chain of p110a in PIK3CA-WT HDQ-P1 cells (P42336 whole entry): as the sequence (P42336 whole entry H1047R) above, with R1047H counted along it
Chain of p110a in PIK3CA-WT HDQ-P1 cells (P27986 whole entry partner): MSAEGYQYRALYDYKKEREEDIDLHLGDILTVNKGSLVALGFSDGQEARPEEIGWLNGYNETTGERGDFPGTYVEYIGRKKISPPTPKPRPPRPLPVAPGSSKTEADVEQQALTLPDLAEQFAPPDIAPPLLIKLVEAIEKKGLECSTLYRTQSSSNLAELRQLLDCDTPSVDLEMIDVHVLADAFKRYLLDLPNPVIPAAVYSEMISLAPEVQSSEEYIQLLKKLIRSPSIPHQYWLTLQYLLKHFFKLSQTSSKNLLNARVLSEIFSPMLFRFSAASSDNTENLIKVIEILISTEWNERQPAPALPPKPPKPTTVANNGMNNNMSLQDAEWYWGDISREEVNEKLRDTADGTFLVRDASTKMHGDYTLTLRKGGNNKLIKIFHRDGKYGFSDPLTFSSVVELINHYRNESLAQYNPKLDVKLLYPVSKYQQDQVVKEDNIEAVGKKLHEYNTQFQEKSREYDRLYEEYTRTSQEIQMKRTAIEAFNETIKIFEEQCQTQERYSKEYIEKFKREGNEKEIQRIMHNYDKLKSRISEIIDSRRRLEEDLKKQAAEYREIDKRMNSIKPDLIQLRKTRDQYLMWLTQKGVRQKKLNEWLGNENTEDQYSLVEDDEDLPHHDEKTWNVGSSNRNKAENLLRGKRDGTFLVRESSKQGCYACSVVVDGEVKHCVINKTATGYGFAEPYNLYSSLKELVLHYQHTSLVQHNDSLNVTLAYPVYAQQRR

SMILES: Cc1nc(NC(=O)N2CCC[C@H]2C(N)=O)sc1-c1ccnc(C(C)(C)C(F)(F)F)c1 [Alpelisib, reference compound]
- cytotoxic effects in primary human hepatocytes [1]: no cytotoxic effects
- potency differential in mutant versus WT isogenic SW48 cells [2]: not have a potency differential

SMILES: C[C@H](Nc1ccc2c(c1)OCCn1cc(N3C(=O)OC[C@H]3C(F)F)nc1-2)C(N)=O [GDC-0077]
- cytotoxic effects in primary human hepatocytes [1]: no cytotoxic effects
- tumor response at the MTD in PIK3CA-mutant xenograft and PDX models [3]: tumor regressions
- GDC-0077 concentrations giving negative GR values (cytotoxic response) [4]: ≥ 0.12 µmol/L
- p110a protein expression in HCC1954 xenograft tumors ([5]; single oral dose of 50 mg/kg): depleted p110a protein expression for up to 8 hours
- fold difference between the mean IC50 values, GDC-0077 versus BYL719 [6]: ~20 fold
- fold difference between the mean IC50 values, GDC-0077 versus BYL719 [7]: ~6 fold
- pAKT / pathway inhibition over the 24-hour treatment time [8]: sustained inhibition of pAKT; also recorded: sustained pathway inhibition
- p110a degradation at clinically relevant concentrations [9]: resulted in p110a degradation
- mutant-specific (H1047R) p110a peptide by mass spectrometry [10]: loss of the mutant-specific peptide
- drug–drug interactions [11]: No drug–drug interactions were observed

SMILES: CC(C)n1ncnc1-c1cn2c(n1)-c1ccc(O[C@@H](C)C(N)=O)cc1OCC2 [GNE-326, (S)-2-((2-(1-Isopropyl-1H-1,2,4-triazol-5-yl)-5,6-dihydrobenzo[f]imidazo[1,2-d][1,4]oxazepin-9-yl)oxy)propanamide]
- potency differential in mutant versus WT isogenic SW48 cells [2]: not have a potency differential

SMILES: CS(=O)(=O)N1CCN(Cc2cc3nc(-c4cccc5[nH]ncc45)nc(N4CCOCC4)c3s2)CC1 [Pictilisib, 2-(1H-indazol-4-yl)-6-(4-methanesulfonyl-piperazin-1-ylmethyl)-4-morpholin-4-yl-thieno[3,2-d]pyrimidine]
- potency differential in mutant versus WT isogenic SW48 cells [2]: comparable EC50

SMILES: Cc1nc(-c2cn3c(n2)-c2ccc(-c4cnn(C(C)(C)C(N)=O)c4)cc2OCC3)n(C(C)C)n1 [Taselisib]
- cytotoxic effects in primary human hepatocytes [1]: no cytotoxic effects
- potency (EC50) increase in PIK3CA-mutant cells versus parental WT SW48 cells ([2]; H1047R or E545K knock-in versus parental): 3 fold
- p110a protein level in HCC1954 cells [12]: dose-dependent depletion of p110a protein
- membrane-associated p110a in HCC1954 xenograft tumors ([5]; 4 hours after a single oral dose of 15 mg/kg): depleted
- p110a protein level in HDQ-P1 cells [13]: No significant change
- p110a degradation at clinically relevant concentrations [9]: resulted in p110a degradation
- mutant-specific (H1047R) p110a peptide by mass spectrometry [10]: loss of the mutant-specific peptide
